Measurements published in PMC6255377, “New 1-Aryl-3-Substituted Propanol Derivatives as Antimalarial Agents” (Molecules, 2009).
Where two headings read alike, the source gives them in different places.

Key:
[1] = tested on: P. berghei ANKA strain; type: in vivo; details: for GIP of P. bergei (growth inhibition percentage): 10 mg/kg/day, positive control; for appearance / toxicity in treated mice: in vivo
Description: The in vivo antimalarial activity of the compounds was measured by the classical 4-day suppressive test. Briefly, on day 0, groups of five NMRI male mice, weighing 20 ± 2 g each, were inoculated with 2 × 10^7 red blood cells RBCs infected by erythrocytic stages of rodent malaria parasite P. berghei ANKA strain. Two hours later, each group of mice was treated intraperitoneally with a dose of 50 mg/kg of the selected compound, previously prepared in DMSO. Treatment was continued from day 1 to day 3, always at similar times. On day 4, Giemsa-stained thin blood smears from the tail of the mice were prepared and microscopically examined with 1,000× magnification. The mean of the parasitemia of each group was calculated in a total of 1,000 RBCs, and the growth inhibition percentage of parasite was estimated in relation to the control group, which received only the solvent of the products. % inhibition = [(Par control – Par comp)/(Par control)] × 100

[2] = tested on: P. falciparum 3D7 strain, chloroquine sensitive; experiment: In vitro antimalarial activity screening (SYBR Green I micromethod); type: cell-based; details: Plasmodium falciparum, read-out: P. falciparum 3D7 IC50
Description: The SYBR^©GreenI-based micromethod was followed for testing the antimalarial activity of the compounds. Erythrocytic stages of P. falciparum 3D7 strain, chloroquine sensitive, were maintained in RPMI 1640 culture medium supplemented with 0.5% Albumax II at 37 °C in an atmosphere with 5% CO2. […] Next, stock solutions of each compound were prepared in DMSO and diluted in RPMI medium in order to obtain concentrations from 10 to 0.01 µg/mL. […] All compounds and controls were placed in triplicate. The plate was incubated under the same conditions. After 48 h, the plate was removed from the incubator and frozen for at least 1 h at -70 °C and then thawed. Finally, 100 µL of SYBR^©GreenI in lysis buffer (0.2 µL/mL) was added per well and shaken for 5 minutes or until no precipitated erythrocytes were observed. The plate was left to stand in the dark for 1 h at room temperature. Fluorescence intensity (FI) for each well was measured. The background of the nonparasitized erythrocytes was subtracted from each well tested.

[3] = tested on: Murine J774 macrophages; experiment: Nonspecific cytotoxicity test (MTT); type: cell-based; details: 10 µg/mL, 24 h exposure
Description: Murine J774 macrophages were maintained in RPMI 1640 medium supplemented with 10% FBS at 37 °C in a 5% CO2 atmosphere. First, in a flat bottom 96-well microplate, 100 µL of macrophage suspension in RPMI medium, containing 5 × 10^4 cells, were distributed per well. The cells were allowed to attach for 24 h at 37 °C. Next, the medium was replaced by different concentrations of the compounds in 200 µL of medium, or DMSO at the same concentration as growth control, and the cells were exposed to the compounds solutions for another 24 h. Each concentration was assayed three times. Afterwards, the medium was eliminated and 100 µL/well of 3-(4,5-dimethythiazol-2-yl)-2,5-diphenyltetrazolium bromide (MTT) solution, 0.4 mg/mL in PBS, was added and the plates were returned to incubator for 1 h. The suspension was removed and the toxic effect of the compounds was assessed by the reduction of MTT to formazan crystals (as a cell viability indicator); said crystals were solubilized by adding 100 µL of DMSO. Finally, the optical density (OD) was measured at 595 nm and the toxicity percentage was calculated as follows:% toxicity = [(O.D.control - O.D.comp)/(O.D.control)] × 100

[4] = tested on: ferriprotoporphyrin IX biomineralization; parameters: method as in PMID 12128052; details: read-out: IC50 in the FBIT test; cited from earlier work
[5] = 3D7, Table 1, 48 h incubation, mean of two experiments in triplicate

SMILES	IC50 [2, 5]	melting point	further results
CCN(CC)CCCC(C)Nc1ccnc2cc(Cl)ccc12 (stereo not drawn) [Chloroq., Chloroquine, reference compound]			GIP of P. bergei (growth inhibition percentage) ([1]; four-day treatment, NMRI male mice): 100% at 10 mg/kg; GIP of P. bergei (growth inhibition percentage) ([1]; four-day treatment, NMRI male mice, listed as chloroquine): GIP = Growth inhibition percentage of the rodent malaria parasite after a four-day treatment. 10 mg/kg/day of chloroquine, positive control, inhibited 100% the growth parasite. ^a Toxic = death of more than half of the animals in the tested group.; IC50 ([2]; 3D7, 48 h): 80 nM
O=[N+]([O-])c1ccc(N2CCC(NCCC(O)c3csc4ccccc34)CC2)c(C(F)(F)F)c1 (stereo not drawn) [Compound 31, 1-(Benzo[b]thiophen-3-yl)-3-[1-(4-nitro-2-trifluoromethylphenyl)piperidin-4-ylamino]propan-1-ol]	190 nM		cytotoxicity on murine macrophages J774 [3]: showed toxicity; GIP of P. bergei at 50 mg/kg/day (growth inhibition percentage) ([1]; 50 mg/kg/day intraperitoneally, four-day treatment, NMRI male mice): Toxic; appearance / toxicity in treated mice ([1]; male, NMRI, mouse, 4 days): cytotoxicity of compound 31 was confirmed in the in vivo test
C=C[C@H]1C[N@@]2CC[C@H]1C[C@H]2[C@H](O)c1ccnc2ccc(OC)cc12 [quinine]			IC50 [4]: 324 µM
O=[N+]([O-])c1ccc(N2CCCN(CCC(O)c3csc4ccccc34)CC2)cc1 (stereo not drawn) [Compound 34, 1-(Benzo[b]thiophen-3-yl)-3-(4-(4-nitrophenyl)-1,4-diazepan-1-yl)propan-1-ol]	3430 nM	47 to 48 °C	
Cc1ccc2cccc(N3CCN(CCC(O)c4csc5ccc(F)cc45)CC3)c2n1 (stereo not drawn) [Compound 23]	380 nM		appearance / toxicity in treated mice [1]: looked unhealthy and showed clear evidence of weight loss
O=[N+]([O-])c1ccc(N2CCC(NCCC(O)c3csc4ccccc34)CC2)cc1 (stereo not drawn) [Compound 33, 1-(Benzo[b]thiophen-3-yl)-3-(1-(4-nitrophenyl)piperidin-4-ylamino)propan-1-ol]	1000 nM	153 to 155 °C	

Now from value to molecule, other results behind:

IC50 [2, 5]	melting point	SMILES	further results
330 nM		COc1ccccc1N1CCN(CCC(O)c2csc3ccc(F)cc23)CC1 (stereo not drawn) [Compound 15]	appearance / toxicity in treated mice [1]: looked unhealthy and showed clear evidence of weight loss
160 nM		OC(CCN1CCN(c2cccc3ccccc23)CC1)c1csc2ccc(F)cc12 (stereo not drawn) [Compound 12]	appearance / toxicity in treated mice [1]: the appearance of the mice was good
680 nM	154 to 155 °C	O=[N+]([O-])c1ccc(N2CCN(CCC(O)c3csc4ccccc34)CC2)c(C(F)(F)F)c1 (stereo not drawn) [Compound 28, 1-(Benzo[b]thiophen-3-yl)-3-[4-(4-nitro-2-trifluoromethylphenyl)piperazin-1-yl]propan-1-ol]	
> 20000 nM	140 to 141 °C	O=C(CCN1CCN(c2ccc([N+](=O)[O-])cc2C(F)(F)F)CC1)c1csc2ccccc12 [Compound 6, 1-(Benzo[b]thiophen-3-yl)-3-[4-(4-nitro-2-trifluoromethylphenyl)piperazin-1-yl]propan-1-ona]	
620 nM	155 to 156 °C	OC(CCN1CCN(c2cnc3ccccc3n2)CC1)c1csc2ccccc12 (stereo not drawn) [Compound 35, 1-(Benzo[b]thiophen-3-yl)-3-(4-(quinoxalin-2-yl)piperazin-1-yl)propan-1-ol]	
